Activity calls are given as the source filed them. The calls are words filed in the database; no cut-off is given here.
What was measured:
[1] = target: Insulin receptor-related protein (Homo sapiens) (UniProt P14616); assay: Inhibition of recombinant human IRR (943 to 1266 residues) assessed as residual activity at 10 uM using myelin basic protein as substrate measured after 40 mins in presence of [gamma33P]ATP by scintillation counting method
[2] = target: Dual specificity mitogen-activated protein kinase kinase 6 (Homo sapiens) (UniProt P52564); assay: Inhibition of recombinant human MKK6 (4 to end residues) assessed as residual activity at 10 uM using unactive SAPK2a as substrate measured after 40 mins in presence of [gamma33P]ATP by scintillation counting method
Chain of Dual specificity mitogen-activated protein kinase kinase 6 (Homo sapiens) (P52564 whole entry): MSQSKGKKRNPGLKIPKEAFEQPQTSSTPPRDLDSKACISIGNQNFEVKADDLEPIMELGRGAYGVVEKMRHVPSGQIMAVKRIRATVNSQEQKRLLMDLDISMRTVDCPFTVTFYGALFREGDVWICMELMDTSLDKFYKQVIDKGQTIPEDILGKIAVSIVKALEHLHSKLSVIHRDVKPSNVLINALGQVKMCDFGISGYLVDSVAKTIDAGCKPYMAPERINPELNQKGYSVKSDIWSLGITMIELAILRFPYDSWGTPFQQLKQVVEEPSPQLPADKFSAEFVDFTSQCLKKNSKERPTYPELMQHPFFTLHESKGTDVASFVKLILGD

[3] = target: Ephrin type-B receptor 1 (Homo sapiens) (UniProt P54762); assay: Inhibition of recombinant human EphB1 (564 to end residues) assessed as residual activity at 10 uM using KVEKIGEGTYGVVYK as substrate measured after 40 mins in presence of [gamma33P]ATP by scintillation counting method
Chain of Ephrin type-B receptor 1 (Homo sapiens) (P54762 whole entry): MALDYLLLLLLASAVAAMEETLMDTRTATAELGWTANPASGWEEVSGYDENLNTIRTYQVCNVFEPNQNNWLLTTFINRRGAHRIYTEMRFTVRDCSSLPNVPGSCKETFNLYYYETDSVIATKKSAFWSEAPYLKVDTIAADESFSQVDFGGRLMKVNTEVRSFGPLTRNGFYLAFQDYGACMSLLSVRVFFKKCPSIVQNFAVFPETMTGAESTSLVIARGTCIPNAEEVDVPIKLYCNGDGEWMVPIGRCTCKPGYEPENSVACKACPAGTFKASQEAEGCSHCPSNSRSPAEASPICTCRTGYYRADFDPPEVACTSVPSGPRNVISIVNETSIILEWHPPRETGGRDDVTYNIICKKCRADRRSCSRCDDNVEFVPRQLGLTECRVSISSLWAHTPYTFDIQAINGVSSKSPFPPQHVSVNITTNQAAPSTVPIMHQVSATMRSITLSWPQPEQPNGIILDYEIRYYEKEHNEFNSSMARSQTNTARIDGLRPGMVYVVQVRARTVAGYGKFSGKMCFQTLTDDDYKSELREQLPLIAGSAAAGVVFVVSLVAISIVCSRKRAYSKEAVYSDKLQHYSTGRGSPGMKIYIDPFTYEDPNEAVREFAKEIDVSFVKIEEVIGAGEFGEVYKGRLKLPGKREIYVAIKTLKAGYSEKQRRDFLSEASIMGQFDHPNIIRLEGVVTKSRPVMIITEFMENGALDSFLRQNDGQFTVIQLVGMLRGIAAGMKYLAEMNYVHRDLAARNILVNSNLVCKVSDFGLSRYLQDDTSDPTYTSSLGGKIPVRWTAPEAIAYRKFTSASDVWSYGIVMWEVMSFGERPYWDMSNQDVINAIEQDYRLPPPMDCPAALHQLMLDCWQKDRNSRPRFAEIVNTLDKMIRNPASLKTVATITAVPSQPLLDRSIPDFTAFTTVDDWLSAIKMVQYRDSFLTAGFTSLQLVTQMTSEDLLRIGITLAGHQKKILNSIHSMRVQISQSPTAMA

[4] = target: Tyrosine-protein kinase Lck (Homo sapiens) (UniProt P06239); assay: Inhibition of recombinant full-length human activated Lck assessed as residual activity at 10 uM using KVEKIGEGTYGVVYK as substrate measured after 40 mins in presence of [gamma33P]ATP by scintillation counting method
[5] = target: Tubulin (Homo sapiens) (UniProt P68371+Q9H4B7+P0DPH7+P68366+Q13509+Q71U36+P04350+Q3ZCM7+P07437+P68363+Q9BQE3+Q6PEY2+Q13885+Q9BVA1+Q9BUF5); assay: Disruption of microtubule network in human SW620 cells assessed as microtubule condensation at 50 nM incubated for 18 hrs by FITC/DAPI staining-based confocal microscopic analysis; assay type: cell-based
[6] = tested on: Serine/threonine-protein kinase B-raf (Homo sapiens), P15056 [V600E]; assay: Inhibition of recombinant human BRAF V599E mutant (416 to end residues) assessed as residual activity at 10 uM using myelin basic protein as substrate measured after 40 mins in presence of [gamma33P]ATP by scintillation counting method
[7] = tested on: Mast/stem cell growth factor receptor Kit (Homo sapiens), P10721 [V654A]; assay: Inhibition of recombinant human c-Kit V654A mutant (544 to end residues) assessed as residual activity at 10 uM using GGMEDIYFEFMGGKKK as substrate measured after 40 mins in presence of [gamma33P]ATP by scintillation counting method
[8] = target: Mitogen-activated protein kinase kinase kinase 9 (Homo sapiens) (UniProt P80192); assay: Inhibition of recombinant human MLK1 (134 to 414 residues) assessed as residual activity at 10 uM using casein as substrate measured after 40 mins in presence of [gamma33P]ATP by scintillation counting method
[9] = target: Tyrosine-protein kinase ABL2 (Homo sapiens) (UniProt P42684); assay: Inhibition of recombinant human ARG (38 to end residues) assessed as residual activity at 10 uM using EAIYAAPFAKKK as substrate measured after 40 mins in presence of [gamma33P]ATP by scintillation counting method
[10] = tested on: SW-620; assay: Inhibition of colony formation in human SW620 cells at 50 nM after 14 days by crystal violet staining-based microscopic analysis; assay type: functional; conditions: SW-620, 336 h
[11] = target: Mitogen-activated protein kinase kinase kinase 7 (Homo sapiens) (UniProt O43318); assay: Inhibition of human TAK1 (1 to 303 residues) using casein as substrate measured after 40 mins in presence of [gamma33P]ATP by scintillation counting method; design: scale not given: the % may be the effect or the level left
[12] = target: Casein kinase II subunit alpha (Homo sapiens) (UniProt P68400); assay: Inhibition of recombinant full length human CK2alpha1 assessed as residual activity at 10 uM using RRRDDDSDDD as substrate measured after 40 mins in presence of [gamma33P]ATP by scintillation counting method
[13] = tested on: HCT-116; assay: Induction of apoptosis in human HCT116 cells assessed as necrotic cells at 100 nM measured after 48 hrs by Annexin V-FITC/propidium iodide staining-based flow cytometry (reference value: 1.16%); assay type: functional
[14] = target: Protein-tyrosine kinase 6 (Homo sapiens) (UniProt Q13882); assay: Inhibition of full-length recombinant human BRK assessed as residual activity at 10 uM using poly(Glu, Tyr) 4:1 as substrate measured after 40 mins in presence of [gamma33P]ATP by scintillation counting method
[15] = target: Myotonin-protein kinase (Homo sapiens) (UniProt Q09013); assay: Inhibition of recombinant human DMPK (1 to 549 residues) assessed as residual activity at 10 uM using KKSRGDYMTMQIG as substrate measured after 40 mins in presence of [gamma33P]ATP by scintillation counting method
Chain of Myotonin-protein kinase (Homo sapiens) (Q09013 whole entry, the tested form may be a part): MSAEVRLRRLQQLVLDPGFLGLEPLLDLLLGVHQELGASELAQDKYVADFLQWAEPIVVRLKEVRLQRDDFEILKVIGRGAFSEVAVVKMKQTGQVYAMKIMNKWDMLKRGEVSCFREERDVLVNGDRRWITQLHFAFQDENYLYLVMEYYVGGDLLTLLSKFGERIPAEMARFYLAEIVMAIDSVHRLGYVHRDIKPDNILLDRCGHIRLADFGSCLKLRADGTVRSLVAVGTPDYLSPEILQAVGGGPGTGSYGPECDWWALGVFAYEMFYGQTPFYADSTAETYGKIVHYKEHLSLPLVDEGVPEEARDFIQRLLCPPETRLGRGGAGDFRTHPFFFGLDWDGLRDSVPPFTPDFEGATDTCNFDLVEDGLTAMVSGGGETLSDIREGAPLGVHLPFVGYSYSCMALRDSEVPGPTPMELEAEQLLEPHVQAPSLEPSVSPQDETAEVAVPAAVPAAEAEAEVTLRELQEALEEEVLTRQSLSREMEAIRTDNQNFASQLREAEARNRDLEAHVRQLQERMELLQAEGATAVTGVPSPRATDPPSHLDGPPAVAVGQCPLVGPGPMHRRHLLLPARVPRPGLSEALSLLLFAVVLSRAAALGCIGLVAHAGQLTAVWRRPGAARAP

[16] = target: Proto-oncogene tyrosine-protein kinase receptor Ret (Homo sapiens) (UniProt P07949); assay: Inhibition of human Ret (658 to end residues) using KKKSPGEYVNIEFG as substrate measured after 40 mins in presence of [gamma33P]ATP by scintillation counting method; design: scale not given: the % may be the effect or the level left
Chain of Proto-oncogene tyrosine-protein kinase receptor Ret (Homo sapiens) (P07949 whole entry): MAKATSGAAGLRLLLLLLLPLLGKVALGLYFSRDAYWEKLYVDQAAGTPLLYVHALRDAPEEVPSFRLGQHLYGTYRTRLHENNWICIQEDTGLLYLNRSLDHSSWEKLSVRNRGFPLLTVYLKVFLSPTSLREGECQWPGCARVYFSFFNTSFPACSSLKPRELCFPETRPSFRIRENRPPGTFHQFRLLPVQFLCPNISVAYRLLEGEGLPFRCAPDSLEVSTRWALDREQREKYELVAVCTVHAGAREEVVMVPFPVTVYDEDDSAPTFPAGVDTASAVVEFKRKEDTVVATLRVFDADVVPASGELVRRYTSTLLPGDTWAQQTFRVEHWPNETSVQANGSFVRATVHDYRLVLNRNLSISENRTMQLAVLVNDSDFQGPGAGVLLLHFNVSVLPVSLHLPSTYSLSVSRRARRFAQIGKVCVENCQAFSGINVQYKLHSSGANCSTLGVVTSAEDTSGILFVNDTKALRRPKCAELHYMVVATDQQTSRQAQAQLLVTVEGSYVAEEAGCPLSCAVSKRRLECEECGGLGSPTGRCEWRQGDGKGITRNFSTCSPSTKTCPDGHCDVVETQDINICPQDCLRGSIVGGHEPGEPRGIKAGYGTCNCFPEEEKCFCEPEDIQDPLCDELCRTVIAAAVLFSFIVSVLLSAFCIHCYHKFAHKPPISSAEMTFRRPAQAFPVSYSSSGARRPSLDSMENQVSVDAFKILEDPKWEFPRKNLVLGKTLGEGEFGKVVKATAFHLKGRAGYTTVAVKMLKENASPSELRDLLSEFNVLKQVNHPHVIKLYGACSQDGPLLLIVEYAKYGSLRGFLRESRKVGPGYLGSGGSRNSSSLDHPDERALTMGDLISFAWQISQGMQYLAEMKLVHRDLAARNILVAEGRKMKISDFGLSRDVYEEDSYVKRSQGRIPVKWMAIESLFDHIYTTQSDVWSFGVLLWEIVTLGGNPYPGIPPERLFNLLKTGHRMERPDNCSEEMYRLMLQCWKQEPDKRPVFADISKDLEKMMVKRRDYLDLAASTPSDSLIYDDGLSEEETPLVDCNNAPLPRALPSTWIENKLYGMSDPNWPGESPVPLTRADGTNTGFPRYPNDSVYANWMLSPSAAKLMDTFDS

[17] = target: Serine/threonine-protein kinase 17B (Homo sapiens) (UniProt O94768); assay: Inhibition of recombinant full-length human DRAK2 assessed as residual activity at 10 uM using KKRPQRRYSNVF as substrate measured after 120 mins in presence of [gamma33P]ATP by scintillation counting method
[18] = organism: Homo sapiens; assay: Inhibition of recombinant human PRAK R291E mutant assessed as residual activity at 10 uM using KKLRRTLSVA as substrate measured after 40 mins in presence of [gamma33P]ATP by scintillation counting method
[19] = target: Ephrin type-A receptor 1 (Homo sapiens) (UniProt P21709); assay: Inhibition of recombinant human EphA1 (568 to end residues) assessed as residual activity at 10 uM using KKKSPGEYVNIEF as substrate measured after 40 mins in presence of [gamma33P]ATP by scintillation counting method
[20] = target: Beta-adrenergic receptor kinase 1 (Homo sapiens) (UniProt P25098); assay: Inhibition of recombinant full-length human GRK2 assessed as residual activity at 10 uM using casein as substrate measured after 40 mins in presence of [gamma33P]ATP by scintillation counting method
Chain of Beta-adrenergic receptor kinase 1 (Homo sapiens) (P25098 whole entry, the tested form may be a part): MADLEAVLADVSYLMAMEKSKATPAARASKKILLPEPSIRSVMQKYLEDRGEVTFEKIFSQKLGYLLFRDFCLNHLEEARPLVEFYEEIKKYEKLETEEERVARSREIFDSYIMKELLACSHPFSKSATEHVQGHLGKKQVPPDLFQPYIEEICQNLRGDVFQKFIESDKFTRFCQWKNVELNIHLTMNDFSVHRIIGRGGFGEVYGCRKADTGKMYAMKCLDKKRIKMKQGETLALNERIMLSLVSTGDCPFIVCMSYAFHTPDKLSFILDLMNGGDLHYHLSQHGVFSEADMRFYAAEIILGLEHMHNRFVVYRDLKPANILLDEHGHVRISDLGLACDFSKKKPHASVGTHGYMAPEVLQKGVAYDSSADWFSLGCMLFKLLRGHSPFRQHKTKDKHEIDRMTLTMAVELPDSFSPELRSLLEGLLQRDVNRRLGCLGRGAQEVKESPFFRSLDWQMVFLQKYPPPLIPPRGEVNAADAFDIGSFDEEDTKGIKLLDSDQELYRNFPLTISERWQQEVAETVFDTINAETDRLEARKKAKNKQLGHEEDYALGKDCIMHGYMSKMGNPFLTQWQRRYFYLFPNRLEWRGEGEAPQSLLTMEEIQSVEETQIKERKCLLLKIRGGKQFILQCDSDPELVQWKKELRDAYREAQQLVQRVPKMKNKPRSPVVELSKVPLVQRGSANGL

[21] = target: Mitogen-activated protein kinase kinase kinase 10 (Homo sapiens) (UniProt Q02779); assay: Inhibition of recombinant human MLK2 (1 to 449 residues) assessed as residual activity at 10 uM using myelin basic protein as substrate measured after 40 mins in presence of [gamma33P]ATP by scintillation counting method
[22] = target: Vascular endothelial growth factor receptor 1 (Homo sapiens) (UniProt P17948); assay: Inhibition of recombinant human Flt1 (783 to end residues) assessed as residual activity at 10 uM using KKKSPGEYVNIEFG as substrate measured after 40 mins in presence of [gamma33P]ATP by scintillation counting method
Chain of Vascular endothelial growth factor receptor 1 (Homo sapiens) (P17948 whole entry): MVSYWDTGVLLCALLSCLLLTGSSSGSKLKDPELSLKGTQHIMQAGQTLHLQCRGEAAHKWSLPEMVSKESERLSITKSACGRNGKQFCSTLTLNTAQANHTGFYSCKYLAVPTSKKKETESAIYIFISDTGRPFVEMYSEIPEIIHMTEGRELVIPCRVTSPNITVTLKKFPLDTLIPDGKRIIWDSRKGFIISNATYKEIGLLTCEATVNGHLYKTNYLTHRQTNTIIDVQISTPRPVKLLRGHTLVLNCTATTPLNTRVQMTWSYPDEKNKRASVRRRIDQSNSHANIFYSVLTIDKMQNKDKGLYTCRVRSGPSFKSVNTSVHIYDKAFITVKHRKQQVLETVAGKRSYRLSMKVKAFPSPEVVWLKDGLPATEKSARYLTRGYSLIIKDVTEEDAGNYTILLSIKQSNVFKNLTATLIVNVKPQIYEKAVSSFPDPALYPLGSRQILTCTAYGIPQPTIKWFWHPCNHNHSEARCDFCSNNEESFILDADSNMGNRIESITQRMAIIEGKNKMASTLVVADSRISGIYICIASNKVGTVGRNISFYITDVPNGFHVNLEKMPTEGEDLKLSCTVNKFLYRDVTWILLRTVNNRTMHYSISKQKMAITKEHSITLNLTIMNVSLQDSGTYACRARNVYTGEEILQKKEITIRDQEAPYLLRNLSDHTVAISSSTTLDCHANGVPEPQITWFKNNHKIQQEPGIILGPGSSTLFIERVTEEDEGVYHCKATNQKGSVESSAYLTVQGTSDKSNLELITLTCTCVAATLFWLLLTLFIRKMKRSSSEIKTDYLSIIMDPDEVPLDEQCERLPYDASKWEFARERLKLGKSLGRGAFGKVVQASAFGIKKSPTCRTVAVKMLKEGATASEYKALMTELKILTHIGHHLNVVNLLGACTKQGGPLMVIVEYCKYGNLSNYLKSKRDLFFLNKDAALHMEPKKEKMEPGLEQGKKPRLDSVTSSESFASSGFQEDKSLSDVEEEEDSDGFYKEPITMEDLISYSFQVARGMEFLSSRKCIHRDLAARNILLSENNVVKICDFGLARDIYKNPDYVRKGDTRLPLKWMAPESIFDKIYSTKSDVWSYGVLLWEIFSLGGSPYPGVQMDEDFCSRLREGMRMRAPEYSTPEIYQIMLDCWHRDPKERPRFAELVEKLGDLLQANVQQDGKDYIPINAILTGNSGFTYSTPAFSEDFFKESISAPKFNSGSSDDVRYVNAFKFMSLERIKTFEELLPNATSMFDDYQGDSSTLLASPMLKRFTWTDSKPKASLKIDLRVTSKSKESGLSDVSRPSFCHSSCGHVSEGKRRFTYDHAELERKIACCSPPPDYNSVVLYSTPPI

[23] = target: Protein kinase C gamma type (Homo sapiens) (UniProt P05129); assay: Inhibition of recombinant full-length human PKCgamma assessed as residual activity at 10 uM using histone H1 as substrate measured after 40 mins in presence of [gamma33P]ATP by scintillation counting method

## Cc1cc(C)c(CNc2nc(Cl)nc3c2ncn3C2CCCC2)c(=O)[nH]1
[1]
  Activity: 102%
[2]
  Activity: 114%
[3]
  Activity: 104%
[4]
  Activity: 102%
[5]
  Activity: Active
[6]
  Activity: 108%
[7]
  Activity: 90%
[8]
  Activity: 104%
[9]
  Activity: 115%
[10]
  inhibition at 0.05 µM: 100%
[11]
  Activity: 98.5%
[12]
  Activity: 88%
[13]
  Activity: 5.57%
[14]
  Activity: 100%
[15]
  Activity: 104%
[16]
  Activity: 100%
[17]
  Activity: 101%
[18]
  Activity: 125%
[19]
  Activity: 102%
[20]
  Activity: 102%
[21]
  Activity: 91%
[22]
  Activity: 97.5%
[23]
  Activity: 108%

— ChEMBL document CHEMBL4311992, “Discovery of 3-(((9H-purin-6-yl)amino)methyl)-4,6-dimethylpyridin-2(1H)-one derivatives as novel tubulin polymerization inhibitors for treatment of cancer” (Eur J Med Chem, 2019)
